Reference: patent publication US20220331348A1, “METHOD OF PREPARING PENTACYCLIC TRITERPENOID SAPONINS AND DRUG COMPOSITION” (CHINA PHARMACEUTICAL UNIVERSITY, priority 2019, published 2022)
Marks after values point to notes of the source that are not given here.

Assays:
[1] = system: AMPK in Huh-7 cells; assay: Activation activity on AMPK in Huh-7 cells (Western Blot); format: cell-based; conditions: 10 μM, 12 h, Western Blot gray scale, relative to DMSO = 1
Procedure: The activation activity of a compound on AMPK in Huh-7 cells was detected by using Western Blot.
Cell culture conditions: Huh-7 cells were cultured in an incubator with 5% CO2 at 37° C. in DMEM complete medium (containing 10% fetal calf serum and 1% streptomycin/penicillin).
Antibody: anti-AMPK (CST, 2532S); anti-pAMPK (CST, 2535S).
Western Blot experiment: the influence of the compound on phosphorylation level of the AMPK in the Huh-7 cells was detected: cells with more than 90% cells alive were taken for the experiment. In a 12-well plate, the Huh-7 cells were plated in the plate at 250000 cells per well, the plate was placed in the incubator with 5% CO2 at 37° C. for culture, an original culture medium was discarded after 12 h, a complete medium containing the pentacyclic triterpenoid saponin was added, a final concentration of subject pentacyclic triterpenoid saponin was set to be 10 μM, and an administration time was set to be 12 h. A positive control compound employs AICAR (100 μM), metformin (70 μM) or A-769662 (100 μM). Then proteins were extracted for Western Blot detection.
Experimental result: a Western Blot experimental result was subjected to gray scale scanning, a p-AMPK/AMPK ratio of negative control DMSO was defined as 1, and a p-AMPK/AMPK ratio of the subject compound was a relative ratio of a negative control group. The larger the numerical value was, the stronger the activation activity of the AMPK of the compound was.

[2] = system: human ADPKD cyst lining epithelial cell lines WT9-12; assay: Proliferation of polycystic kidney epithelial cells (CCK-8 method); format: cell-based; conditions: polycystic kidney epithelial cells; 10 μM, 48 h; CCK-8; n = 6
Source text: Cell and reagent: complete media for human ADPKD cyst lining epithelial cell lines WT9-12 and DMEM were purchased from ATCC Company; fetal calf serums were purchased from Gibco Company; Cell Counting Kit-8 was purchased from DOJINDO Company; Click-iT® EdU Imaging Kits were purchased from Invitrogen™ Thermo Fisher Scientific Company; Caspase -3/CPP32 Colorimetric Assay Kit was purchased from BioVision Company; Annexin V/PI double-staining flow type cell apoptosis detection kits were purchased from Bender Company; and anti-Phospho-(AMPKa, mTOR, p70S6K, 4E-BP1) antibodies were purchased from Cell Signaling Technology Company.
The influence of 2-DG on proliferation of the polycystic kidney epithelial cells was detected with a CCK-8 method: a DMEM complete medium containing 10% fetal calf serum (FBS) was prepared. The polycystic kidney epithelial cells were cultured in an incubator with 5% CO2 at 37° C. after being recovered, a solution was replaced every other day, the polycystic kidney epithelial cells were passaged every 2-3 days, and the cells were in a growing state of adhering to the wall. After trypsin enzyme digestion, cells were resuspended by using a complete medium, the concentration of a polycystic kidney epithelial cell suspension was regulated to be 3×10^7/L, the polycystic kidney epithelial cell suspension was inoculated to 96-well plate by […] per well for culture for 24 h, and the suspension was replaced by a culture medium containing 0.1% FBS for synchronization for 24 h.

[3] = system: high fat diet induced NASH model rats; assay: High fat diet (HFD) induced NASH rat model; format: in vivo; design: MDA: unit not given here
Procedure: Animal: 32 SD male rats of SPF level with 6 weeks old and 220 g were purchased from Beijing Vital River Laboratory Animal Technology Co., Ltd. All the animals maintained 12 h alternative circadian rhythm with free access to food.
Reagent: the ginsenoside Ro (I) was purchased from Shanghai Boka Chemistry Technology Co., Ltd; obeticholic acid (OCA) was purchased from Jiangsu Vcare PharmaTech Co., Ltd; high fat diets were purchased from Research Diets (D12492, 60 kcal %); and standard feeds were purchased from Research Diets (D12450B, 10 kcal %).
The rats were randomly divided into 4 groups based on the weight: a control group (CHOW), a high fat diet model group (HFD), a positive drug obeticholic acid (OCA, 5 mg/Kg) group (HFD+OCA) and a ginsenoside Ro (Ro for short, 5 mg/kg) group (HFD+Ro). The control group was fed with the standard feeds and drank water normally; and the rest groups were fed with the high fat diets, drank 10% aqueous sucrose solution for replacing the water and were modeled for 20 weeks.
After 20 weeks, the control group and the high fat diet model group were given with a CMC-Na solution with the volume fraction of 0.5% intragastrically every day, the HFD+OCA group was given with the obeticholic acid (5 mg/Kg) intragastrically every day, and the HFD+Ro was given with the ginsenoside Ro (5 mg/Kg) intragastrically every day. Administration was conducted for 8 weeks, during which, the control group was given with the standard feeds and drank the water normally, and the rest three groups were given with the high fat diets and drank 10% aqueous sucrose solution. The rats in each group were weighed every day, weights, hairs, feces and activity conditions were carefully observed and recorded.
The rats were deprived of food but not water for 12 h in advance; and the next morning, blood was taken from eye sockets, the rats were sacrificed, and livers were harvested. Right liver lobule tissues were fixed with 4% paraformaldehyde for HE stained slicing. A part of liver tissues were divided into 3 parts, which were snap-frozen in liquid nitrogen for subsequent detection of other indexes.
Whole blood was left to still standing for 2 h at room temperature, centrifugation was conducted for 15 min at 3000 rpm, and a serum was collected. 100 Mg of liver tissues were taken and homogenized with 0.9 mL of precooled normal saline, a homogenate was centrifuged for 15 min at 4° C. and 3000 rpm, and a supernatant was taken. Both of the serum and the supernatant were sent to Pathologic Department of Hospital of Integrated Traditional Chinese and Western Medicine in Jiangsu Province for determination of levels of triglyceride (TG), total cholesterol (TC), low density lipoprotein cholesterin (LDL-c) and high density lipoprotein cholesterol (HDL-c) in the serum and levels of the TG and the TC in the supernatant of the homogenate of the liver tissues with the full-automatic biochemical analyzer.
Pretreated tissues were sent to Google Biotechnology Co., Ltd for preparing HE stained slices and oil red stained slices.
Liver tissues preserved at −80° C. were put in the liquid nitrogen, about 10 mg of the liver tissues were quickly dissected out, 500 μL of precooled tissue lysate was added, and the tissues were homogenized with a homogenizer and then left to lyse on ice for 30 min; and centrifugation was conducted for 15min at 4° C. and 12000 rpm, […] of a supernatant was sucked to a clean EP tube, […] of the supernatant was taken for BCA protein quantification, […] of 5*loading buffer was added in the rest protein supernatant for denaturing by boiling, SDS-PAGE electrophoresis was conducted subsequently, the proteins were transferred onto a PVDF membrane, then incubation and elution of a relevant antibody were conducted, and finally, a chemiluminescence apparatus was employed for imaging analysis.

[4] = HFD NASH rats, summary in words
[5] = HFD induced NASH model rats, 5 mg/Kg, n = 8
[6] = serum of HFD induced NASH model rats, 5 mg/Kg, n = 8

In the case of madecassoside [(VI)], the pAMPK/AMPK ratio [1] is reported as 2.27, the “Inhibition rate (%)” value [2] is reported as 76.3 ± 2.3 % and the “inflammatory responses of the livers” value [3, 4] is reported as “inhibit”. For the same substance, the “lipid accumulation, caused by the high fat diets, of the rat livers” value [3, 4] was “effectively lower”, the “Liver TC” value [3, 5] was 0.472 ± 0.201** mmoL/gprot and the “Liver TG” value [3, 5] was 1.240 ± 0.213** mmoL/gprot. The “Serum LDL-c” value [3, 5] was 47.25 ± 7.45* mg/dL, the “Serum TG” value [3, 5] was 18.83 ± 4.11** mg/dL and the ALT [3, 6] was 65.86 ± 10.43*** U/L. The AST [3, 6] was 127.21 ± 9.34* U/L and the MDA [3, 6] was 11.59 ± 2.88*.
